Measurements taken from patent US20100004128A1, “HERBICIDAL ISOXAZOLINE COMPOUNDS” (SYNGENTA CROP PROTECTION, INC., priority 2006, published 2010).

System: Monocotyledonous and dicotyledonous test plants
Test: Herbicidal action, application pre-emergence
Format: in vivo
Design: key: 10=total damage to plant; 0=no damage to plant
Details: spray solution 1000 mg/l, scale 0-10; for Herbicidal action (damage score) AGSTE: Agrostis tenius; for Herbicidal action (damage score) AMARE: Amaranthus retroflexus; for Herbicidal action (damage score) DIGSA: Digitaria sanguinalis; for Herbicidal action (damage score) POATR: Poa trivialis; for Herbicidal action (damage score) SETFA: Setaria faberi; for Herbicidal action (damage score) SETIT: Setaria italica
Method: Monocotyledonous and dicotyledonous test plants were sown in sterilised standard soil in seed trays each having 96 cells. After one day (pre-emergence) or after 8 to 9 days cultivation (post-emergence) under controlled conditions in a climatic chamber (cultivation at 23/17° C., day/night; 13 hours light; 50-60% humidity; after application at 24/19° C., day/night), the plants were treated with an aqueous spray solution of 1000 mg/l of the active ingredient used (incl. 10% DMSO as solvent). The plants were grown on in the climatic chamber until the test was evaluated (10=total damage to plant, 0=no damage to plant) after 9 or 13 days.

Row | Structure (SMILES) | Herbicidal action (damage score) AGSTE | Herbicidal action (damage score) AMARE | Herbicidal action (damage score) DIGSA | Herbicidal action (damage score) POATR | Herbicidal action (damage score) SETFA | Herbicidal action (damage score) SETIT
1 | Cc1nn(C(F)F)nc1C(F)[S+]([O-])C1=NOC(C)(C)C1 (racemic) [Compound No. 1.21] | 10 | 10 | 10 | 10 | 10 | 
2 | Cc1nn(C(F)F)nc1C(F)(F)[S+]([O-])C1=NOC(C)(C)C1 (racemic) [1.22] | 10 | 10 | 10 | 10 | 9 | 
3 | COCCn1nc(C(F)[S+]([O-])C2=NOC(C)(C)C2)c(C(F)(F)F)n1 (mixture of isomers) [1.24] | 10 | 10 | 10 | 10 | 9 | 
4 | CCn1nc(C(F)(F)F)c(C(F)(F)[S+]([O-])C2=NOC(C)(C)C2)n1 (racemic) [Compound No. 1.16] | 10 | 10 | 10 | 10 | 9 | 
5 | C=CCn1nc(C(F)(F)F)c(C(F)(F)S(=O)(=O)C2=NOC(C)(C)C2)n1 [1.32] | 10 | 10 | 10 | 10 | 10 | 
6 | COc1nn(C)nc1C(F)(F)[S+]([O-])C1=NOC(C)(C)C1 (stereo not drawn) [1.44] | 10 | 10 | 10 | 0 | 9 | 
7 | CC1(C)CC([S+]([O-])C(F)(F)c2cn(C(C)(C)C)nn2)=NO1 (stereo not drawn) [2.04] | 6 | 0 | 2 | 0 | 6 | 
8 | Cc1nn(C)nc1C(F)S(=O)(=O)C1=NOC(C)(C)C1 (stereo not drawn) [Compound No. 1.04, 4-[(5,5-dimethyl-4,5-dihydro-isoxazole-3-sulfonyl)-fluoro-methyl]-2,5-dimethyl-2H-[1,2,3]triazole] | 10 | 9 | 10 | 10 |  | 9
9 | Cn1ncc(C(F)(F)[S+]([O-])C2=NOC(C)(C)C2)n1 (stereo not drawn) [1.36] | 10 | 9 | 10 | 10 | 9 | 
10 | Cn1nc(C(F)(F)F)c(C(F)(F)S(=O)(=O)C2=NOC(C)(C)C2)n1 [1.09] | 10 | 10 | 10 | 10 |  | 10
11 | CC1(C)CC([S+]([O-])C(F)(F)c2nn(CC3CCC3)nc2C(F)(F)F)=NO1 (stereo not drawn) [1.49] | 10 | 9 | 10 | 10 | 9 | 
12 | CCc1nn(CC)nc1C(F)S(=O)(=O)C1=NOC(C)(C)C1 (racemic) [1.12] | 10 | 10 | 9 | 10 | 9 | 
13 | CC1(C)CC(S(=O)(=O)C(F)(F)c2cn(C(C)(C)C)nn2)=NO1 [2.02] | 9 | 3 | 9 | 9 | 8 | 
14 | COc1nn(C)nc1C(F)(F)S(=O)(=O)C1=NOC(C)(C)C1 [1.43] | 10 | 10 | 10 | 0 | 10 | 
15 | C=CCn1nc(C(F)[S+]([O-])C2=NOC(C)(C)C2)c(C(F)(F)F)n1 (mixture of isomers) [1.33] | 10 | 4 | 10 | 10 | 6 | 
16 | Cc1nn(C)nc1C(F)(Cl)S(=O)(=O)C1=NOC(C)(C)C1 (racemic) [Compound No. 1.07] | 10 | 9 | 10 | 10 |  | 9
17 | Cn1nnc(C(F)(F)F)c1C(F)S(=O)(=O)C1=NOC(C)(C)C1 (stereo not drawn) [Compound No. 3.01] | 10 | 5 | 10 | 10 |  | 8
18 | Cc1nn(C(F)F)nc1C(F)S(=O)(=O)C1=NOC(C)(C)C1 (racemic) [Compound No. 1.19] | 10 | 10 | 10 | 10 | 10 | 
19 | CCn1ncc(C(F)S(=O)(=O)C2=NOC(C)(C)C2)n1 (stereo not drawn) [1.37] | 10 | 10 | 9 | 10 | 9 | 
20 | Cc1nn(C)nc1C(F)(F)S(=O)(=O)C1=NOC(C)(C)C1 [Compound No. 1.05] | 10 | 10 | 10 | 10 |  | 10
21 | Cn1nnc(C(F)(F)F)c1C(F)(F)[S+]([O-])C1=NOC(C)(C)C1 (stereo not drawn) [Compound No. 3.03] | 10 | 10 | 9 | 10 | 8 | 
22 | CC1(C)CC(S(=O)(=O)C(F)(F)c2nn(CC3CCC3)nc2C(F)(F)F)=NO1 [1.48] | 10 | 9 | 10 | 6 | 9 | 
23 | Cn1ncc(C(F)(F)S(=O)(=O)C2=NOC(C)(C)C2)n1 [1.35] | 10 | 10 | 9 | 10 | 9 | 
24 | Cn1nnc(Br)c1C(F)(F)S(=O)(=O)C1=NOC(C)(C)C1 [Compound No. 3.04] | 10 | 10 | 9 | 10 | 9 | 
